From patent US10206400B2, “Insecticidal compounds based on isoxazoline derivatives” (Syngenta Crop Protection LLC, priority 2009, dated 2019)

How the values were obtained:
Type in all cases: in vivo
[1] = system: Thrips tabaci; assay: Thrips tabaci (onion thrips) leaf disc spray test; conditions: foliar, 168 h, 200 ppm spray on sunflower leaf discs, mixed ages, 7 days, mortality
Protocol: [The procedure below names another target; the source lists this target under the same test.] Sunflower leaf discs were placed on agar in a 24-well microtiter plate and sprayed with test solutions at an application rate of 200 ppm. After drying, the leaf discs were infested with an […] population of mixed ages. After an incubation period of 7 days, samples were checked for mortality.

[2] = system: Diabrotica balteata; assay: Diabrotica balteata (corn root worm) artificial diet test; conditions: 120 h, 200 ppm (concentration in well 18 ppm), L2 larvae, 5 days, larval mortality, growth regulation
Protocol: A 24-well microtiter plate (MTP) with artificial diet was treated with test solutions at an application rate of 200 ppm (concentration in well 18 ppm) by pipetting. After drying, the MTP's were infested with L2 larvae (6-10 per well). After an incubation period of 5 days, samples were checked for larval mortality and growth regulation.

[3] = system: Plutella xylostella; assay: Plutella xylostella (diamond back moth) artificial diet test; conditions: 144 h, 200 ppm (concentration in well 18 ppm), L2 larvae, 6 days, larval mortality, growth regulation
Protocol: 24-well microtiter plate (MTP) with artificial diet was treated with test solutions at an application rate of 200 ppm (concentration in well 18 ppm) by pipetting. After drying, the MTP's were infested with L2 larvae (7-12 per well). After an incubation period of 6 days, samples were checked for larval mortality and growth regulation.

[4] = system: Spodoptera littoralis; assay: Spodoptera littoralis (Egyptian cotton leafworm) leaf disc spray test; conditions: foliar, 72 h, 200 ppm spray on cotton leaf discs, L1 larvae, mortality, feeding behavior, growth regulation 3 days after treatment
Source text: Cotton leaf discs were placed on agar in a 24-well microtiter plate and sprayed with test solutions at an application rate of 200 ppm. After drying, the leaf discs were infested with 5 L1 larvae. The samples were checked for mortality, feeding behavior, and growth regulation 3 days after treatment (DAT).

[5] = system: Tetranychus urticae; assay: Tetranychus urticae (two-spotted spider mite) leaf disc spray test; conditions: foliar, 192 h, 200 ppm spray on bean leaf discs, mixed ages, 8 days, egg, larval and adult mortality
Source text: Bean leaf discs on agar in 24-well microtiter plates were sprayed with test solutions at an application rate of 200 ppm. After drying, the leaf discs are infested with mite populations of mixed ages. 8 days later, discs are checked for egg mortality, larval mortality, and adult mortality.

[6] = system: Myzus persicae; assay: Myzus persicae (green peach aphid), systemic test; conditions: 144 h, roots of infested pea seedlings in test solution, 6 days, mortality, special effects on the plant
Source text: Myzus persicae (Green peach aphid), systemic test: Roots of pea seedlings, infested with an aphid population of mixed ages, are placed directly in the test solutions at an application rate of 12.5 ppm. 6 days after introduction, samples are checked for mortality and special effects on the plant. The following compounds gave at least 80% control of Myzus persicae: A3, B2, B3, B5, B6, B7, B8, B11, B12, C1, C2, C3,C4, C5, C6, C7, D1, E1, E2, G1, G3, G5, G6, H1, H5, H6, H9, H10, H11, H12, H13, H14, H18, H19, H20, H24, H25, and H26.

[7] = system: Heliothis virescens; assay: Heliothis virescens (tobacco budworm) egg/artificial diet test; conditions: 96 h, 200 ppm (concentration in well 18 ppm), eggs 0-24 h old on artificial diet, 4 days, egg mortality, larval mortality, growth regulation
Protocol: Eggs (0-24 h old) were placed in 24-well microtiter plate on artificial diet and treated with test solutions at an application rate of 200 ppm (concentration in well 18 ppm) by pipetting. After an incubation period of 4 days, samples were checked for egg mortality, larval mortality, and growth regulation.

CCN1OC[C@H](NC(=O)c2ccc(C3=NO[C@@](c4cc(Cl)cc(Cl)c4)(C(F)(F)F)C3)cc2C)C1=O [Compound G3, 4-[5-(3,5-dichloro-phenyl)-5-(S)-trifluoromethyl-4,5-dihydro-isoxazol-3-yl]-2-methyl-N—((S)-2-ethyl-3-oxo-isoxazolidin-4-yl)-benzamide]
≥ 80%: pest or weed control at 200 ppm [1] | pest or weed control at 200 ppm [2] | pest or weed control at 200 ppm [3] | pest or weed control at 200 ppm [4] | pest or weed control at 200 ppm [5] | pest or weed control at 12.5 ppm [6] | pest or weed control at 200 ppm [7]

COCCN1OC[C@@H](NC(=O)c2ccc(C3=NOC(c4cc(Cl)cc(Cl)c4)(C(F)(F)F)C3)cc2C)C1=O (stereo partly drawn) [Compound B7, 4-[5-(3,5-Dichloro-phenyl)-5-trifluoromethyl-4,5-dihydro-isoxazol-3-yl]-2-methyl-N-((R)-2-(2-methoxyethyl)-3-oxo-isoxazolidin-4-yl)-benzamide]
≥ 80%: pest or weed control at 200 ppm [1] | pest or weed control at 200 ppm [2] | pest or weed control at 200 ppm [3] | pest or weed control at 200 ppm [4] | pest or weed control at 200 ppm [5] | pest or weed control at 12.5 ppm [6] | pest or weed control at 200 ppm [7]

Cc1cc(C2=NOC(c3cc(Cl)cc(Cl)c3)(C(F)(F)F)C2)ccc1C(=O)N[C@@H]1CON(C)C1=O (stereo partly drawn) [Compound B2, 4-[5-(3,5-Dichloro-phenyl)-5-trifluoromethyl-4,5-dihydro-isoxazol-3-yl]-2-methyl-N-((R)-2-methyl-3-oxo-isoxazolidin-4-yl)-benzamide]
≥ 80%: pest or weed control at 200 ppm [1] | pest or weed control at 200 ppm [2] | pest or weed control at 200 ppm [3] | pest or weed control at 200 ppm [4] | pest or weed control at 200 ppm [5] | pest or weed control at 12.5 ppm [6] | pest or weed control at 200 ppm [7]

CCN1OC[C@@H](NC(=O)c2ccc(C3=NOC(c4cc(Cl)c(Cl)c(Cl)c4)(C(F)(F)F)C3)cc2C)C1=O (stereo partly drawn) [Compound C1, 4-[5-(3,4,5-Trichloro-phenyl)-5-trifluoromethyl-4,5-dihydro-isoxazol-3-yl]-2-methyl-N-((R)-2-ethyl-3-oxo-isoxazolidin-4-yl)-benzamide]
≥ 80%: pest or weed control at 200 ppm [1] | pest or weed control at 200 ppm [2] | pest or weed control at 200 ppm [3] | pest or weed control at 200 ppm [4] | pest or weed control at 200 ppm [5] | pest or weed control at 12.5 ppm [6] | pest or weed control at 200 ppm [7]

CCN1OC[C@@H](NC(=O)c2ccc(C3=NOC(c4cc(Cl)cc(Cl)c4)(C(F)(F)F)C3)cc2C)C1=O (stereo partly drawn) [Compound B6, 4-[5-(3,5-Dichloro-phenyl)-5-trifluoromethyl-4,5-dihydro-isoxazol-3-yl]-2-methyl-N-((R)-2-ethyl-3-oxo-isoxazolidin-4-yl)-benzamide]
≥ 80%: pest or weed control at 200 ppm [1] | pest or weed control at 200 ppm [2] | pest or weed control at 200 ppm [3] | pest or weed control at 200 ppm [4] | pest or weed control at 200 ppm [5] | pest or weed control at 12.5 ppm [6] | pest or weed control at 200 ppm [7]

CCN1OC[C@@H](NC(=O)c2ccc(C3=NO[C@@](c4cc(Cl)cc(Cl)c4)(C(F)(F)F)C3)cc2C)C1=O [Compound G1, 4-[5-(3,5-dichloro-phenyl)-5-(S)-trifluoromethyl-4,5-dihydro-isoxazol-3-yl]-2-methyl-N—((R)-2-ethyl-3-oxo-isoxazolidin-4-yl)-benzamide]
≥ 80%: pest or weed control at 200 ppm [1] | pest or weed control at 200 ppm [2] | pest or weed control at 200 ppm [3] | pest or weed control at 200 ppm [4] | pest or weed control at 200 ppm [5] | pest or weed control at 12.5 ppm [6] | pest or weed control at 200 ppm [7]

CCCCN1OC[C@@H](NC(=O)c2ccc(C3=NOC(c4cc(Cl)cc(Cl)c4)(C(F)(F)F)C3)cc2C)C1=O (stereo partly drawn) [Compound B8, 4-[5-(3,5-Dichloro-phenyl)-5-trifluoromethyl-4,5-dihydro-isoxazol-3-yl]-2-methyl-N-((R)-2-butyl-3-oxo-isoxazolidin-4-yl)-benzamide]
≥ 80%: pest or weed control at 200 ppm [1] | pest or weed control at 200 ppm [2] | pest or weed control at 200 ppm [3] | pest or weed control at 200 ppm [4] | pest or weed control at 200 ppm [5] | pest or weed control at 12.5 ppm [6] | pest or weed control at 200 ppm [7]

CCN1OC[C@H](NC(=O)c2ccc(C3=NOC(c4cc(Cl)cc(Cl)c4)(C(F)(F)F)C3)cc2C)C1=O (stereo partly drawn) [Compound E2, 4-[5-(3,5-Dichloro-phenyl)-5-trifluoromethyl-4,5-dihydro-isoxazol-3-yl]-2-methyl-N-((S)-2-ethyl-3-oxo-isoxazolidin-4-yl)-benzamide]
≥ 80%: pest or weed control at 200 ppm [1] | pest or weed control at 200 ppm [2] | pest or weed control at 200 ppm [3] | pest or weed control at 200 ppm [4] | pest or weed control at 200 ppm [5] | pest or weed control at 12.5 ppm [6] | pest or weed control at 200 ppm [7]

CCN1CC(NC(=O)c2ccc(C3=NOC(c4cc(Cl)cc(Cl)c4)(C(F)(F)F)C3)cc2C)CO1 (stereo not shown) [Compound A3, 4-[5-(3,5-Dichloro-phenyl)-5-trifluoromethyl-4,5-dihydroisoxazol-3-yl]-N-(2-ethyl-isoxazolidin-4-yl)-2-methyl-benzamide]
≥ 80%: pest or weed control at 200 ppm [1] | pest or weed control at 200 ppm [2] | pest or weed control at 200 ppm [3] | pest or weed control at 200 ppm [4] | pest or weed control at 200 ppm [5] | pest or weed control at 12.5 ppm [6] | pest or weed control at 200 ppm [7]

CCN1CC(CNC(=O)c2ccc(C3=NOC(c4cc(Cl)cc(Cl)c4)(C(F)(F)F)C3)cc2C)CS1(=O)=O (stereo not shown) [Compound D1, 4-[5-(3,5-Dichloro-phenyl)-5-trifluoromethyl-4,5-dihydro-isoxazol-3-yl]-N-(2-ethyl-1,1-dioxo-1lambda*6*-isothiazolidin-4-ylmethyl)-2-methl-benzamide]
≥ 80%: pest or weed control at 200 ppm [1] | pest or weed control at 200 ppm [2] | pest or weed control at 200 ppm [3] | pest or weed control at 200 ppm [4] | pest or weed control at 200 ppm [5] | pest or weed control at 12.5 ppm [6] | pest or weed control at 200 ppm [7]
